Common to all, as to assay: NCI anticancer screen, dose series, 48 h
Experiment [1] deals with ACHN.
Experiment [2] concerns SF-295.
For experiment [3], the system named is SW-620.
The test system of experiment [4] is K562.
Experiment [5] concerns MDA-MB-435.
Experiment [6] deals with HL-60.
Experiment [7] has as its system HCT-116.
Experiment [8] concerns COLO 205.
The subject of experiment [9] is A549.
In experiment [10] the test system is 786-0.
In experiment [11] the test system is M14.
The subject of experiment [12] is SK-OV-3.
Experiment [13] has as its system NCI-H23.
The test system of experiment [14] is OVCAR-8.
In experiment [15] the test system is Malme-3M.
Experiment [16] relates to HCT-15.
Experiment [17] has as its system NCI-H522.
The subject of experiment [18] is SR.

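Grown in 96-well plates, cells were treated for 48 hours with each compound at five concentrations. Insufficient inhibition: endpoint recorded as highest concentration tested. The concentration for 50% growth inhibition is given as GI50.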 Calls of active or inactive are those of the source. No stated cut-off is given here; in the data, active = GI50 up to about 1.1 µM and inactive = higher. A value given as a limit tells only on which side of the number the result lay.

`CC(C)CC(O)P(=O)(O)O.NC1CCCCC1` (stereo not drawn): the GI50 in experiment [1], in experiment [2], in [3], in experiment [4], in experiment [5] and in [6] was > 100 µM (inactive) throughout. Further, the GI50 in experiment [7], in experiment [8], in experiment [9], in [10], in experiment [11] and in [12] was > 100 µM (inactive) each time.
Regarding `C[N+](C)(C)c1ncnc2c1ncn2C1CCCO1` (stereo not drawn), the GI50 in experiment [1], in experiment [13], in experiment [2], in experiment [3], in experiment [4] and in experiment [5] was > 100 µM (inactive) throughout. Also, the GI50 was 56.4 µM (inactive) in experiment [6]; > 100 µM (inactive) in experiment [7]; > 100 µM (inactive) in experiment [14]; > 100 µM (inactive) in experiment [8]; > 100 µM (inactive) in experiment [9]; > 100 µM (inactive) in [10]. Further, the GI50 was > 100 µM (inactive) in experiment [15]; greater than 100 µM in [16]; > 100 µM (inactive) in experiment [11]; > 100 µM (inactive) in experiment [12]; > 100 µM (inactive) in [17].
On to `O=C(CSCC(=O)N/N=C/c1ccc(F)cc1)N/N=C/c1ccc(F)cc1`, for which the GI50 is > 100 µM (inactive) in [1]; > 100 µM (inactive) in experiment [13]; > 100 µM (inactive) in [3]; 57.1 µM (inactive) in experiment [4]; > 100 µM (inactive) in [6]; > 100 µM (inactive) in experiment [7]. Moreover, the GI50 in [14] is > 100 µM (inactive); in experiment [8], > 100 µM (inactive); in [9], 54.8 µM (inactive); in experiment [10], > 100 µM (inactive); in [15] it was > 100 µM (inactive); in [16], greater than 100 µM. Besides, the GI50 in experiment [11] was 76.6 µM (inactive); in [12] it was > 100 µM (inactive); in experiment [17] it was 65.9 µM (inactive); in experiment [18], > 100 µM (inactive).
As for `COP(=O)(OC)C(O)CC(C)C` (stereo not drawn), the GI50 in [1], in experiment [2], in experiment [3], in experiment [4], in experiment [5] and in experiment [6] was > 100 µM (inactive) throughout. Moreover, the GI50 in experiment [7], in [8], in experiment [9], in experiment [10], in experiment [11] and in experiment [12] was > 100 µM (inactive) in each case.
For `CN1c2ccccc2C(=O)Nc2cnc(Cl)nc21`, the GI50 in [1] is > 100 µM (inactive); in experiment [13], > 100 µM (inactive); in experiment [2], 46.3 µM (inactive); in experiment [3] it was > 100 µM (inactive); in [4], > 100 µM (inactive); in experiment [5], > 100 µM (inactive). Besides, the GI50 in [6] was > 100 µM (inactive); in [7], > 100 µM (inactive); in experiment [14], 65.2 µM (inactive); in experiment [8], > 100 µM (inactive); in [9], > 100 µM (inactive); in experiment [10], 35.8 µM (inactive). Also, the GI50 in experiment [15] is > 100 µM (inactive); in [16], greater than 100 µM; in experiment [11] it was > 100 µM (inactive); in experiment [12] it was > 100 µM (inactive); in experiment [17] it was 64.6 µM (inactive).
Consider `COC(=O)C1=C(CCCCO[Si](C)(C)C(C)(C)C)NC(=O)N2[C@@H](CCOCc3ccccc3)CC[C@H]12`, for which the GI50 was 29.1 µM (inactive) in [1]; 7.98 µM (inactive) in experiment [13]; 26 µM (inactive) in experiment [2]; 25.1 µM (inactive) in [4]; 24 µM (inactive) in experiment [5]; 10.9 µM (inactive) in experiment [7]. The GI50 was 18 µM (inactive) in [8]; 14.8 µM (inactive) in experiment [9]; 15.9 µM (inactive) in [10]; 19.4 µM (inactive) in [15]; 17.8 µM in [16]; 25.8 µM (inactive) in [11]. The values for the GI50 in [12] and in experiment [17] were 45.3 µM (inactive) and 11.1 µM (inactive), respectively.
Take `CC(C)(C)OC(=O)NCCCCC(N)C(N)=O` (stereo not drawn): the GI50 in experiment [1], in experiment [13], in experiment [2], in experiment [3], in [4] and in experiment [5] was > 100 µM (inactive) throughout. The GI50 in [7], in experiment [14], in experiment [8], in [9], in experiment [10] and in experiment [15] was > 100 µM (inactive) each time. Moreover, the GI50 in [16] is greater than 100 µM; in experiment [11], > 100 µM (inactive); in experiment [12], 54.7 µM (inactive); in experiment [17] it was > 100 µM (inactive).
For the compound `C/C=C\C(CC(=O)NCCc1c[nH]c2ccccc12)CC(=O)OC` (stereo not drawn), the GI50 in [1], in experiment [13], in experiment [2], in experiment [3], in experiment [4] and in experiment [5] was > 100 µM (inactive) in each case. Also, the GI50 in [7], in [14], in experiment [8], in [9], in [10] and in experiment [15] was > 100 µM (inactive) throughout. For the same compound, the GI50 is greater than 100 µM in experiment [16], > 100 µM (inactive) in experiment [11], > 100 µM (inactive) in experiment [12] and > 100 µM (inactive) in experiment [17].
As for `O=C1c2ccccc2CC12CCC1(CC2)OCCO1`, the GI50 in experiment [1], in experiment [13], in experiment [2], in experiment [3], in experiment [4] and in [6] was > 100 µM (inactive) in each case. Also, the GI50 in [7] is > 100 µM (inactive); in experiment [14], > 100 µM (inactive); in experiment [8] it was > 100 µM (inactive); in experiment [9], > 100 µM (inactive); in experiment [10], > 100 µM (inactive); in experiment [15] it was 97.9 µM (inactive). The GI50 in experiment [16] was greater than 100 µM; in experiment [11] it was > 100 µM (inactive); in experiment [12] it was > 100 µM (inactive); in experiment [17], > 100 µM (inactive); in experiment [18], > 100 µM (inactive).
Consider `O=C1Nc2ccccc2/C1=N/Nc1nc(-c2ccc([N+](=O)[O-])cc2)cs1`, for which the GI50 in [1] was 13.3 µM (inactive); in experiment [13], 27.7 µM (inactive); in experiment [2], 24.1 µM (inactive); in experiment [3], 32.7 µM (inactive); in [5], 24.7 µM (inactive); in experiment [7], 29.6 µM (inactive). For the same compound, the GI50 in experiment [14] is 16.8 µM (inactive); in experiment [8] it was 44.2 µM (inactive); in experiment [9], 30.1 µM (inactive); in experiment [10], 19.4 µM (inactive); in [16], 14.5 µM; in experiment [11], 15 µM (inactive). Further, the GI50 in experiment [12] is 63.1 µM (inactive).
As to `CCN(CC)CCOc1ccccc1/C=C/c1noc2ccccc12`, the GI50 was 12.7 µM (inactive) in experiment [1]; 13.9 µM (inactive) in [13]; 16.2 µM (inactive) in experiment [2]; 10.2 µM (inactive) in experiment [3]; 9.29 µM (inactive) in [4]; 7.76 µM (inactive) in experiment [6]. In addition, the GI50 in experiment [7] was 6.22 µM (inactive); in [14], 12.2 µM (inactive); in [8] it was 6.21 µM (inactive); in experiment [10] it was 13.6 µM (inactive); in [15], 1.01 µM (active); in experiment [16], 10.5 µM. Also, the GI50 in [11] is 2.54 µM (inactive); in experiment [12], 20 µM (inactive); in [17], 8.17 µM (inactive); in [18], 11.7 µM (inactive).
On to `N#CC(C#N)=C/C=C/c1ccccc1[N+](=O)[O-]`, for which the GI50 in experiment [1] is 4.26 µM (inactive); in experiment [13], 4.45 µM (inactive); in experiment [2], > 10 µM (inactive); in experiment [3], 4.08 µM (inactive); in experiment [4], 3.21 µM (inactive); in [6] it was 6.05 µM (inactive). For the same compound, the GI50 in experiment [7] was 1.87 µM (inactive); in experiment [14], 1.96 µM (inactive); in experiment [8], 3.93 µM (inactive); in experiment [9] it was > 10 µM (inactive); in [10], 3.33 µM (inactive); in experiment [15] it was 3.73 µM (inactive). For the same compound, the GI50 in experiment [16] was 7.08 µM; in [12], > 10 µM (inactive); in experiment [17] it was 3.33 µM (inactive); in experiment [18] it was 3.54 µM (inactive).
As for `C/C(=N\NC(=O)c1ccncc1)c1cccc(F)c1`, the GI50 in [1], in [13], in experiment [2], in experiment [3], in experiment [4] and in experiment [6] was > 10 µM (inactive) each time. Further, the GI50 in experiment [7], in [14], in [8], in [9], in experiment [10] and in experiment [15] was > 10 µM (inactive) throughout. Further, the GI50 was greater than 10 µM in experiment [16], > 10 µM (inactive) in experiment [11], > 10 µM (inactive) in [12] and > 10 µM (inactive) in experiment [18].

Source of the values: ChEMBL document CHEMBL1201862, “PubChem BioAssay data set” (2004).
